According to paper PMC5504357, “Antifungal Potential of Copper(II), Manganese(II) and Silver(I) 1,10-Phenanthroline Chelates Against Multidrug-Resistant Fungal Species Forming the Candida haemulonii Complex: Impact on the Planktonic and Biofilm Lifestyles” (Frontiers in Microbiology, 2017):
In brackets after ≈: the same amount, converted by molar mass. Where two headings read alike, the source gives them in different places.

What was measured:
[1] = tested on: Candida haemulonii; assay: Biofilm-growing cells, XTT assay, bMIC; format: cell-based; details: for GM-bMIC: geometric mean, C. haemulonii isolates, values marked * do not include LIP Ch4 (>512); for bMIC: mature biofilm, 48 h, 50% inhibition of metabolic activity
Procedure, shortened: (§1)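 Biofilms were grown from 10^6 yeast cells in Sabouraud-dextrose broth for 48 h at 37°C, washed three times with PBS pH 7.2, then exposed to compounds (same concentrations as planktonic assays) for another 48 h at 37°C. Metabolic activity was read by XTT reduction; bMIC is the lowest concentration giving 50% inhibition versus compound-free wells.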

[2] = tested on: Candida duobushaemulonii; assay: Biofilm-growing cells, XTT assay, bMIC; format: cell-based; details: for GM-bMIC: geometric mean, C. duobushaemulonii isolates; for bMIC: mature biofilm, 48 h, 50% inhibition of metabolic activity
Procedure, shortened: as §1

[3] = tested on: Candida haemulonii var. vulnera; assay: Biofilm-growing cells, XTT assay, bMIC; format: cell-based; details: for GM-bMIC: geometric mean, C. haemulonii var. vulnera isolates; for bMIC: mature biofilm, 48 h, 50% inhibition of metabolic activity
Procedure, shortened: as §1

[4] = tested on: Candida haemulonii; assay: Planktonic growth, broth microdilution (CLSI M27-A3), MIC; format: cell-based
Procedure, shortened: (§2)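 Following CLSI M27-A3, compounds were serially diluted in RPMI 1640 (0.0625-32 mg/L) and incubated with isolates at 37°C for 48 h. Visual reading gave the MIC as the lowest growth-free concentration, and MICs were pooled as a geometric mean over isolates; inocula came from 48 h Sabouraud-dextrose cultures.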

[5] = tested on: Candida duobushaemulonii; assay: as above; format: cell-based
Procedure, shortened: as §2

[6] = tested on: Candida haemulonii var. vulnera; assay: as above; format: cell-based
Procedure, shortened: as §2

[7] = tested on: Candida haemulonii complex; assay: Biofilm-growing cells, overall across isolates; format: cell-based; details: geometric mean across strains, values marked * do not include LIP Ch4 (>512)
Procedure, shortened: as §1

[8] = tested on: C. haemulonii complex; assay: Planktonic growth, overall across all nine isolates; format: cell-based, Candida haemulonii complex; details: for MIC: read-out: Overall GM-MIC; for effect on planktonic fungal growth/viability (in words): nine clinical isolates, 0.0625-32 mg/L
Procedure, shortened: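 Three clinical isolates per species (nail, blood, urine origin), grown in Sabouraud-dextrose 48 h at 37°C, were tested by CLSI M27-A3 broth microdilution in RPMI 1640 over 0.0625-32 mg/L. After 48 h at 37°C, MIC was the lowest concentration with no visible growth; the across-isolate value is a geometric mean MIC.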

[9] = Mammalian cell toxicity (MTT assay) and selectivity index; format: cell-based, Human; details: human, A549 cells (human lung adenocarcinoma); MTT, 48 h incubation
Procedure, shortened: (§3)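 A549 cells were exposed to compounds (0.0313–512 μg/mL) in DMEM for 48 h at 37 °C, 5% CO2. Viability was measured by MTT (3 h, dark), with formazan dissolved in DMSO and read at 450 nm. CC50 was derived, and SI calculated as A549 CC50 divided by C. haemulonii complex GM-MIC.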

[10] = tested on: A549 cells; assay: as above; format: cell-based, Human; details: MTT, 48 h incubation
Procedure, shortened: as §3

[11] = Candidozyma haemuli, 48 h, isolate LIP Ch4, planktonic, 48 h, 37°C, read-out: MIC
[12] = Candidozyma haemuli, 48 h, isolate LIP Ch7, planktonic, 48 h, 37°C, read-out: MIC
[13] = Candidozyma haemuli, 48 h, isolate LIP Ch12, planktonic, 48 h, 37°C, read-out: MIC
[14] = Candidozyma haemuli, geometric mean of three C. haemulonii isolates, read-out: GM-MIC
[15] = Candidozyma duobushaemuli, 48 h, isolate LIP Ch1, planktonic, 48 h, 37°C, read-out: MIC
[16] = Candidozyma duobushaemuli, 48 h, isolate LIP Ch6, planktonic, 48 h, 37°C, read-out: MIC
[17] = Candidozyma duobushaemuli, 48 h, isolate LIP Ch8, planktonic, 48 h, 37°C, read-out: MIC
[18] = Candidozyma duobushaemuli, geometric mean of three C. duobushaemulonii isolates, read-out: GM-MIC
[19] = Candidozyma haemuli, 48 h, isolate LIP Ch5, planktonic, 48 h, 37°C, read-out: MIC
[20] = Candidozyma haemuli, 48 h, isolate LIP Ch9, planktonic, 48 h, 37°C, read-out: MIC
[21] = Candidozyma haemuli, 48 h, isolate LIP Ch11, planktonic, 48 h, 37°C, read-out: MIC
[22] = Candidozyma haemuli, geometric mean of three C. haemulonii var. vulnera isolates, read-out: GM-MIC
[23] = Candidozyma haemuli, geometric mean across all nine strains, in μM
[24] = Candidozyma haemuli, geometric mean across all nine strains

Compound	GM-bMIC [1]	bMIC ([1]; isolate LIP Ch4) [mg/L]	bMIC ([1]; isolate LIP Ch7) [mg/L]	bMIC ([1]; isolate LIP Ch14) [mg/L]	GM-bMIC [2] [mg/L]	bMIC ([2]; isolate LIP Ch1) [mg/L]	bMIC ([2]; isolate LIP Ch6) [mg/L]	bMIC ([2]; isolate LIP Ch8) [mg/L]	GM-bMIC [3] [mg/L]	bMIC ([3]; isolate LIP Ch5) [mg/L]	bMIC ([3]; isolate LIP Ch9) [mg/L]	bMIC ([3]; isolate LIP Ch13) [mg/L]	MIC [4, 11] [µg/mL]	MIC [4, 12] [µg/mL]	MIC [4, 13] [µg/mL]	MIC [4, 14] [µg/mL]	MIC [5, 15] [µg/mL]	MIC [5, 16] [µg/mL]	MIC [5, 17] [µg/mL]	Overall GM-bMIC [7] [mg/L]	also measured
c1cnc2c(c1)ccc1cccnc12 [phen, 1,10-phenanthroline]	12.70 mg/L	512	2	2	1	1	1	1	10.08	4	32	8	1 (≈ 5.55 µM)	1 (≈ 5.55 µM)	1 (≈ 5.55 µM)	1 (≈ 5.55 µM)	1 (≈ 5.55 µM)	1 (≈ 5.55 µM)	1 (≈ 5.55 µM)	5.04	MIC [5, 18]: 1 µg/mL (≈ 5.55 µM); MIC [6, 19]: 1 µg/mL (≈ 5.55 µM); MIC [6, 20]: 1 µg/mL (≈ 5.55 µM); MIC [6, 21]: 0.5 µg/mL (≈ 2.77 µM); MIC [6, 22]: 0.79 µg/mL (≈ 4.38 µM); Overall GM-bMIC ([7]; in μM): 27.96 µM; MIC [8, 23]: 5.16 µM; MIC [8, 24]: 0.93 µg/mL; effect on planktonic fungal growth/viability (in words) [8]: appreciably deterred fungal growth; activity of metal-free phen relative to phendione ([8]; planktonic, more active than phendione): ~ 2 fold; CC50 at 48 h [9]: 4.3 µg/mL (≈ 23.9 µM)
O=C1C(=O)c2cccnc2-c2ncccc21 [phendione, 1,10-phenanthroline-5,6-dione, reference compound]	11.31^* mg/L	>512	8	16	12.70	4	32	16	20.16	16	16	32	2 (≈ 9.52 µM)	2 (≈ 9.52 µM)	2 (≈ 9.52 µM)	2 (≈ 9.52 µM)	2 (≈ 9.52 µM)	4 (≈ 19 µM)	2 (≈ 9.52 µM)	14.67	MIC [5, 18]: 2.52 µg/mL (≈ 12 µM); MIC [6, 19]: 2 µg/mL (≈ 9.52 µM); MIC [6, 20]: 2 µg/mL (≈ 9.52 µM); MIC [6, 21]: 2 µg/mL (≈ 9.52 µM); MIC [6, 22]: 2 µg/mL (≈ 9.52 µM); Overall GM-bMIC ([7]; in μM): 76 µM; MIC [8, 23]: 10.3 µM; MIC [8, 24]: 2.16 µg/mL; effect on planktonic fungal growth/viability (in words) [8]: appreciably deterred fungal growth; CC50 at 48 h [9]: 2.02 µg/mL (≈ 9.61 µM)
{[Mn(3,6,9-tdda)(phen)2].3H2O.EtOH}n [compound 14]	20.16 mg/L	512	4	4	10.08	16	4	16	8	16	4	8								11.76	GM-MIC ([4]; geometric mean of three C. haemulonii isolates): 2 µg/mL; MIC ([4]; isolate LIP Ch4, planktonic, 48 h, 37°C): 2 µg/mL; MIC ([4]; isolate LIP Ch7, planktonic, 48 h, 37°C): 2 µg/mL; MIC ([4]; isolate LIP Ch12, planktonic, 48 h, 37°C): 2 µg/mL; GM-MIC ([5]; geometric mean of three C. duobushaemulonii isolates): 3.17 µg/mL; MIC ([5]; isolate LIP Ch1, planktonic, 48 h, 37°C): 4 µg/mL; MIC ([5]; isolate LIP Ch6, planktonic, 48 h, 37°C): 4 µg/mL; MIC ([5]; isolate LIP Ch8, planktonic, 48 h, 37°C): 2 µg/mL; GM-MIC ([6]; geometric mean of three C. haemulonii var. vulnera isolates): 2 µg/mL; MIC ([6]; isolate LIP Ch5, planktonic, 48 h, 37°C): 2 µg/mL; MIC ([6]; isolate LIP Ch9, planktonic, 48 h, 37°C): 2 µg/mL; MIC ([6]; isolate LIP Ch11, planktonic, 48 h, 37°C): 2 µg/mL; Overall GM-MIC ([8]; geometric mean across all nine strains): 2.33 µg/mL; MIC ([8]; geometric mean across all nine strains, in μM): 3.15 µM; A549 (CC50) [10]: 261.67 µg/mL
